{
  "source": "paper PMC5516003",
  "about": "“Betulinic acid is a PPARγ antagonist that improves glucose uptake, promotes osteogenesis and inhibits adipogenesis” (Scientific Reports, 2017)",
  "key": {"[1]": {"biological_target": "T1, PPARγ (Homo sapiens, UniProt P37231)", "T1 construct": "gene PPARG", "T1 sequence (P37231 222-505)": "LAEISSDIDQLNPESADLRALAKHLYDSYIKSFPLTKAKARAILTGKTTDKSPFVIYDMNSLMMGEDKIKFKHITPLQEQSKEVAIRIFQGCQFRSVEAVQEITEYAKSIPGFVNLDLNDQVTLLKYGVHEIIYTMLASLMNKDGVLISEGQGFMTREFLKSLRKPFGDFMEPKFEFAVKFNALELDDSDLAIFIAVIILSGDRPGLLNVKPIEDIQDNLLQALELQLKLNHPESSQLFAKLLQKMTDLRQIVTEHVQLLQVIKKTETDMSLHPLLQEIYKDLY", "assay": "ITC (reverse titration) and X-ray crystal structure; also affinity cartridge and GAL4 antagonist assay (IC50 […])", "format": "binding"}, "[2]": {"biological_target": "T2, PPARγ (Homo sapiens, UniProt P37231)", "T2 construct": "gene PPARG; His-tagged PPARγ LBD", "T2 sequence (P37231 231-505 limits assumed)": "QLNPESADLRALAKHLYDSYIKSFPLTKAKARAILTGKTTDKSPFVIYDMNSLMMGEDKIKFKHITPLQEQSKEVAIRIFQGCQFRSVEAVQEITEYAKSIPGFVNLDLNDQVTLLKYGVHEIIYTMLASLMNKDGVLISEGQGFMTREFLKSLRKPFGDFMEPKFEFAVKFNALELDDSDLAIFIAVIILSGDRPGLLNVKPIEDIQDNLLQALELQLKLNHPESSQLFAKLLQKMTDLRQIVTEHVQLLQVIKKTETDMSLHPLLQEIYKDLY", "assay": "immobilized-receptor affinity cartridge (breakthrough shift); also GAL4 transactivation partial agonist, Emax […]", "format": "binding"}},
  "data": [
    {"smiles": "C=C(C)[C@@H]1CC[C@]2(C(=O)O)CC[C@]3(C)[C@H](CC[C@@H]4[C@@]5(C)CC[C@H](O)C(C)(C)[C@@H]5CC[C@]43C)[C@@H]12", "note": "[BA, betulinic acid]", "values": [
      {"measurement": "Kd", "setting": "[1]", "result": 4, "unit": "µM"}
    ]},
    {"smiles": "CC1=CC(=O)c2c(O)cccc2C1=O", "note": "[plumbagin]", "values": [
      {"measurement": "immobilized-receptor affinity cartridge (breakthrough shift); also GAL4 transact", "setting": "[2]", "result": "only three ligands (i.e., plumbagin, BA and coumarin) interact with the receptor"}
    ]}
  ]
}
